Reference: patent publication US9321773B2, “Compounds” (Respivert Ltd, priority 2009, dated 2016)
Like-named read-outs stand apart in the source and are kept apart here.

Assays:
[1] = tested on: H2O2 induced pAkt in D-U937 cells; test: PI3Kδ Cell Based Assay (H2O2 induced pAkt); conditions: Homo sapiens, dU937
Outline: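 U937 cells differentiated to macrophage-type cells with PMA (100 ng/mL, 48 to 72 hr), then stimulated with H2O2. pAkt and total Akt detected by antibody-based immunoassay. Ratio of pAkt to total Akt signal used; IC50 from concentration-response curves of serially diluted compounds.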

recombinant PI3 kinase δ = recombinant PI3 kinase δ (Homo sapiens (Human), UniProt O00329); test: Enzyme Inhibition Assay (HTRF PI3K enzyme assay, TR-FRET); type: biochemical
recombinant PI3 kinase δ, sequence (O00329 whole entry, the tested form may be a part): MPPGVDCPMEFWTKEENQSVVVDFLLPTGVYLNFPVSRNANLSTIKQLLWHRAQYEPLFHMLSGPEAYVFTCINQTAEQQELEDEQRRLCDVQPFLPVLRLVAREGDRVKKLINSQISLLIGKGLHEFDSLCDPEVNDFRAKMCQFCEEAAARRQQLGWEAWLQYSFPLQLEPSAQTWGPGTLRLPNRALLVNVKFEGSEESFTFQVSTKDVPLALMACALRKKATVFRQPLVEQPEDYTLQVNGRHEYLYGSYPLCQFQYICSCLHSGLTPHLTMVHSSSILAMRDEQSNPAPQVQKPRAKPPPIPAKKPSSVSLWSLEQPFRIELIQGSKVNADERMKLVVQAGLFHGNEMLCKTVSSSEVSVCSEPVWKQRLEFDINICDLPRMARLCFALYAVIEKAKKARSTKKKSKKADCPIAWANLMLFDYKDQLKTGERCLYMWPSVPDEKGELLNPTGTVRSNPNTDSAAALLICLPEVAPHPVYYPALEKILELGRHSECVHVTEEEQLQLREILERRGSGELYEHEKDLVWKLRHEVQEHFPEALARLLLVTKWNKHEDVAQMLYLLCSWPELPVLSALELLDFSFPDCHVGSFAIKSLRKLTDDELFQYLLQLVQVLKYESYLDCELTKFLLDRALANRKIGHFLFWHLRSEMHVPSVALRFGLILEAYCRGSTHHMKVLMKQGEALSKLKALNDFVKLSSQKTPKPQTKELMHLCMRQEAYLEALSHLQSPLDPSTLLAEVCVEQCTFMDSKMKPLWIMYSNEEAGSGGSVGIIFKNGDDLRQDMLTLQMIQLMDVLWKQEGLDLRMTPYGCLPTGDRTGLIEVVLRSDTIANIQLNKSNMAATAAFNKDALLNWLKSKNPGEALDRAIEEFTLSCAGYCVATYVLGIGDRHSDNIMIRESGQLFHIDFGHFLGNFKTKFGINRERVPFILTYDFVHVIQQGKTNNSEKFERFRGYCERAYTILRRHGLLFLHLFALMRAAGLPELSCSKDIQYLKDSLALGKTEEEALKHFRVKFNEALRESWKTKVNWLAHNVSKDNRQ
recombinant PI3 kinase δ, sequence (P27986 whole entry partner, the tested form may be a part): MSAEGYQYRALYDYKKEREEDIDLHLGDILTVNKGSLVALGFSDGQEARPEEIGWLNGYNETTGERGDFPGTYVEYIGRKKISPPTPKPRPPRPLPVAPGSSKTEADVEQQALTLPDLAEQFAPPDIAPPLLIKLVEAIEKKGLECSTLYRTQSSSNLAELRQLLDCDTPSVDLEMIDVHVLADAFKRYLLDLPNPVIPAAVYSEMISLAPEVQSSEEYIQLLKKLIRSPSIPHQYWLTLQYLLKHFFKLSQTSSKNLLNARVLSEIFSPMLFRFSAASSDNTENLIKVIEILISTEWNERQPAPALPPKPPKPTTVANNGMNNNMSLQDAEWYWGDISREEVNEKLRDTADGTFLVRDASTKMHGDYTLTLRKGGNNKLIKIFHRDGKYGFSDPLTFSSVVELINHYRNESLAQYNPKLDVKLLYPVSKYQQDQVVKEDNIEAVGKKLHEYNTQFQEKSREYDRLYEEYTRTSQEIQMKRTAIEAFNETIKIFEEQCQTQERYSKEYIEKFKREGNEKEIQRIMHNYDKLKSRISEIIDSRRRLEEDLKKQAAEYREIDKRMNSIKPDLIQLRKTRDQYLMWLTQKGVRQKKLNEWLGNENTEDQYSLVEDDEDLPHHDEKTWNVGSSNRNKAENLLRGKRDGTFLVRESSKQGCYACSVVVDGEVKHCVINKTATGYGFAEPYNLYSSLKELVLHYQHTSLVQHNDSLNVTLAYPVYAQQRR
Outline: (§1)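 Recombinant PI3Kα, δ or γ incubated with PIP2 substrate and compound for 2 hr at RT. Stop solution with biotin-PIP3 and GST-GRP1 PH domain/Eu-anti-GST/SA-APC detection mix added, then 15-18 hr at RT. PIP3 formed reduces the TR-FRET signal.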

recombinant PI3 kinase γ = recombinant PI3 kinase γ (Homo sapiens (Human), UniProt P48736); test: as above; type: biochemical
recombinant PI3 kinase γ, sequence (P48736 whole entry): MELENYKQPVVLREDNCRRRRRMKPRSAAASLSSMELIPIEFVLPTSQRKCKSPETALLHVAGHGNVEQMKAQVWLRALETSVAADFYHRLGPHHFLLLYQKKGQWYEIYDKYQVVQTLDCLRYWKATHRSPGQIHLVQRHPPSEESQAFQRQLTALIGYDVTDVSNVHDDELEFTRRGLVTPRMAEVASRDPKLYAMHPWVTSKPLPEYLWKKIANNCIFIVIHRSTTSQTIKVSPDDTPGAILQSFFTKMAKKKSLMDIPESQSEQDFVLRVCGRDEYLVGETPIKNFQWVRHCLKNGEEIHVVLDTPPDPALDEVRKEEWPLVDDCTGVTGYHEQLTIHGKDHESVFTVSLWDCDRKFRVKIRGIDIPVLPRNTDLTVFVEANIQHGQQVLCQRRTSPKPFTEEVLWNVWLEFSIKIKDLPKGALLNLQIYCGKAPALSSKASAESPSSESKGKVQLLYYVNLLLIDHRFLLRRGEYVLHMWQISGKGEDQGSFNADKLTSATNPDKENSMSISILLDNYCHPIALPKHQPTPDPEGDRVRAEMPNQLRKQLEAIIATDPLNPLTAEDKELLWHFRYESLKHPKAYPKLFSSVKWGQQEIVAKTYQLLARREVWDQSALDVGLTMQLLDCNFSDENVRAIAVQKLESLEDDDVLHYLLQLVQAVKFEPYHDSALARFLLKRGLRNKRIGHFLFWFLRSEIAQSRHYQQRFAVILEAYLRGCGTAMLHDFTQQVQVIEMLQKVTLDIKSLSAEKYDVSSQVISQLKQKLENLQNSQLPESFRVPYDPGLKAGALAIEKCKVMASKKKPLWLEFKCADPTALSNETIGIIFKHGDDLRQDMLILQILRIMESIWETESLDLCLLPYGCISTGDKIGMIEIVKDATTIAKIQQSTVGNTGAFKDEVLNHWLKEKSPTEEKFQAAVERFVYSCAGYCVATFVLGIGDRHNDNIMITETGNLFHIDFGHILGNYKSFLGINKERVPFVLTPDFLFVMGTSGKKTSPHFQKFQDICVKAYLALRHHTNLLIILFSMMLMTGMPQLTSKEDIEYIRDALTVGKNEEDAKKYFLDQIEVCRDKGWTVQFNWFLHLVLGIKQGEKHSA
Outline: as §1

recombinant PI3 kinase α = recombinant PI3 kinase α (Homo sapiens (Human), UniProt P42336); test: as above; type: biochemical
recombinant PI3 kinase α, sequence (P42336 whole entry): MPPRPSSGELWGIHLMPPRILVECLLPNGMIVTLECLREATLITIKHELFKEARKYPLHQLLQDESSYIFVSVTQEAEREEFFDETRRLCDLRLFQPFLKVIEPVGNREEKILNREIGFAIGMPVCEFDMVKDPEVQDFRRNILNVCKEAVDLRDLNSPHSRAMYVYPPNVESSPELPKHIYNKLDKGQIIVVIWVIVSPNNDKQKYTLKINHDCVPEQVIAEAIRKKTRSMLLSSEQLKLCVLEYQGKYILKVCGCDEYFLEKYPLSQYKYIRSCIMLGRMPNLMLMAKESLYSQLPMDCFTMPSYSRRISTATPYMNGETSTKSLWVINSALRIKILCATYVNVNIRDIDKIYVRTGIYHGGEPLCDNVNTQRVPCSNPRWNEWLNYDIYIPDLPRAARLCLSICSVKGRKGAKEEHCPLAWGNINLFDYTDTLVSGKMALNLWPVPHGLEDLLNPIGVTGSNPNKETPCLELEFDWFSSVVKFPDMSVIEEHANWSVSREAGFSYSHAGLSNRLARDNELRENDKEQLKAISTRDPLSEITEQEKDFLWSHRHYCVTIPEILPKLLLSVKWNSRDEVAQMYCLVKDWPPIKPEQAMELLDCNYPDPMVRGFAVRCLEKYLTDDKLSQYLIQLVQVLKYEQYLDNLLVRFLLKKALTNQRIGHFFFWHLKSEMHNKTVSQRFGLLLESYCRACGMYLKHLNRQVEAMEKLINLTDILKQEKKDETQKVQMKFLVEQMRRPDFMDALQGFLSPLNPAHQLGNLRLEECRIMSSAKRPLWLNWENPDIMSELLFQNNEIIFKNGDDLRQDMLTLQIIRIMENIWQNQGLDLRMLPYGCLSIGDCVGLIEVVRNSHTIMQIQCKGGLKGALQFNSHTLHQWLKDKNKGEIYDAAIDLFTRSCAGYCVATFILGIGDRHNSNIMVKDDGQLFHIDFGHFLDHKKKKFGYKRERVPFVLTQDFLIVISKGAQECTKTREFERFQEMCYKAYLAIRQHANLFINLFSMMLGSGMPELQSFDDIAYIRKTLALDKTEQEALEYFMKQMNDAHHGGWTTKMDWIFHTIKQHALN
recombinant PI3 kinase α, sequence (P27986 whole entry partner): as the sequence (P27986 whole entry partner, the tested form may be a part) above
Outline: as §1

[2] = tested on: PMA-differentiated U937 cells; test: MTT Assay (cell viability); type: cell-based, Human; conditions: percentage loss of cell viability; for Cell Viability MTT Assay in D-U937 cells at 4 hr: 4 hr in 5% FCS; for Cell Viability MTT Assay in D-U937 cells at 24 hr: 24 hr in 10% FCS
Outline: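 Differentiated U937 cells treated with compound for 4 hr (5% FCS) or 24 hr (10% FCS), then given MTT for 1 hr; formazan dissolved in DMSO and absorbance read at 550 nm. Viability loss expressed as % versus 0.5% DMSO vehicle.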

[3] = activity range, D-U937 cells, read-out: Cellular Activity IC50 values (H2O2 induced pAkt D-U937 Cells)
[4] = activity range, read-out: PI3 Kinase Inhibition IC50 values at stated Isozyme δ
[5] = activity range, read-out: PI3 Kinase Inhibition IC50 values at stated Isozyme γ
[6] = activity range, read-out: PI3 Kinase Inhibition IC50 values at stated Isozyme α

| SMILES | IC50 [1, 3] [nM] | IC50 (recombinant PI3 kinase δ; [4]) [nM] | IC50 (recombinant PI3 kinase γ; [5]) [nM] | IC50 (recombinant PI3 kinase α; [6]) [nM] | IC50 ([1]; read-out: Cellular Activity IC50 values (H2O2 induced pAkt (nM) D-U937 Cells)) [nM] | IC50 (recombinant PI3 kinase δ; read-out: PI3 Kinase Inhibition IC50 values at stated Isozyme (nM) δ) [nM] | IC50 (recombinant PI3 kinase γ; read-out: PI3 Kinase Inhibition IC50 values at stated Isozyme (nM) γ) [nM] | IC50 (recombinant PI3 kinase α; read-out: PI3 Kinase Inhibition IC50 values at stated Isozyme (nM) α) [nM] | Cell Viability MTT Assay in D-U937 cells at 4 hr [2] | Cell Viability MTT Assay in D-U937 cells at 24 hr [2] |
| --- | --- | --- | --- | --- | --- | --- | --- | --- | --- | --- |
| COCC#Cc1cccc2nc(Cn3nc(-c4cccc(O)c4)c4c(N)ncnc43)n(Cc3ccc(Cl)cc3)c(=O)c12 [Example 26, 2-((4-Amino-3-(3-hydroxyphenyl)-1H-pyrazolo[3,4-d]pyrimidin-1-yl)methyl)-3-(4-chlorobenzyl)-5-(3-methoxyprop-1-ynyl)quinazolin-4(3H)-one] | < 10 | < 50 | 50 to 1000 | 50 to 1000 |  |  |  |  | − (− <30%) | − (− <30%) |
| CN(C)C1CCN(C(=O)CCCC#Cc2cccc3nc(Cn4nc(-c5ccc(O)cc5)c5c(N)ncnc54)n(Cc4ccccc4Cl)c(=O)c23)C1 (stereo not shown) [Example 91, 2-((4-Amino-3-(4-hydroxyphenyl)-1H-pyrazolo[3,4-d]pyrimidin-1-yl)methyl)-3-(2-chlorobenzyl)-5-(6-(3-(dimethylamino)pyrrolidin-1-yl)-6-oxohex-1-ynyl) quinazolin-4(3H)-one] | < 10 | < 50 | < 50 | 50 to 1000 |  |  |  |  | − (− <30%) | − (− <30%) |
| Nc1ncnc2c1c(-c1cccc(O)c1)nn2Cc1nc2cccc(C#CCCC(=O)N3CCOCC3)c2c(=O)n1Cc1ccccc1Cl [Example 56] | < 10 | < 50 | < 50 | < 50 |  |  |  |  | − (− <30%) | − (− <30%) |
| Nc1ncnc2c1c(-c1ccc(O)cc1)nn2Cc1nc2cccc(C#CCCCO)c2c(=O)n1Cc1ccccc1Cl [Example 41, 2-((4-Amino-3-(4-hydroxyphenyl)-1H-pyrazolo[3,4-d]pyrimidin-1-yl)methyl)-3-(2-chlorobenzyl)-5-(5-hydroxypent-1-ynyl)quinazolin-4(3H)-one] | < 10 | < 50 | 50 to 1000 | 50 to 1000 |  |  |  |  | − (− <30%) | − (− <30%) |
| Nc1ncnc2c1c(-c1cccc(O)c1)nn2Cc1nc2cccc(C#CCCCCC(=O)O)c2c(=O)n1Cc1ccccc1Cl [Example 60, 7-(2-((4-Amino-3-(3-hydroxyphenyl)-1H-pyrazolo[3,4-d]pyrimidin-1-yl)methyl)-3-(2-chlorobenzyl)-4-oxo-3,4-dihydroquinazolin-5-yl)hept-6-ynoic acid] | < 10 | < 50 | < 50 | 50 to 1000 |  |  |  |  | − (− <30%) | − (− <30%) |
| COCCN1CCN(C(=O)CCCC#Cc2cccc3nc(Cn4nc(-c5ccc(O)cc5)c5c(N)ncnc54)n(Cc4ccccc4Cl)c(=O)c23)CC1 [Example 77, 2-((4-Amino-3-(4-hydroxyphenyl)-1H-pyrazolo[3,4-d]pyrimidin-1-yl)methyl)-3-(2-chlorobenzyl)-5-(6-(4-(2-methoxyethyl)piperazin-1-yl)-6-oxohex-1-ynyl) quinazolin-4(3H)-one] | < 10 | < 50 | < 50 | 50 to 1000 |  |  |  |  | − (− <30%) | − (− <30%) |
| Nc1ncnc2c1c(-c1ccc(O)cc1)nn2Cc1nc2cccc(C#CCCCC(=O)N3CCCC3)c2c(=O)n1Cc1ccccc1Cl [Example 89, 2-((4-Amino-3-(4-hydroxyphenyl)-1H-pyrazolo[3,4-d]pyrimidin-1-yl)methyl)-3-(2-chlorobenzyl)-5-(6-oxo-6-(pyrrolidin-1-yl)hex-1-yn-1-yl)quinazolin-4(3H)-one] | < 10 | < 50 | < 50 | > 1000 | 0.2 | 3 | 47 | 1490 | − (− <30%) | − (− <30%) |

The next lines start with results.

| IC50 [1, 3] [nM] | IC50 (recombinant PI3 kinase δ; [4]) [nM] | IC50 (recombinant PI3 kinase γ; [5]) [nM] | IC50 (recombinant PI3 kinase α; [6]) [nM] | IC50 ([1]; read-out: Cellular Activity IC50 values (H2O2 induced pAkt (nM) D-U937 Cells)) [nM] | IC50 (recombinant PI3 kinase δ; read-out: PI3 Kinase Inhibition IC50 values at stated Isozyme (nM) δ) [nM] | IC50 (recombinant PI3 kinase γ; read-out: PI3 Kinase Inhibition IC50 values at stated Isozyme (nM) γ) [nM] | IC50 (recombinant PI3 kinase α; read-out: PI3 Kinase Inhibition IC50 values at stated Isozyme (nM) α) [nM] | SMILES | Cell Viability MTT Assay in D-U937 cells at 4 hr [2] | Cell Viability MTT Assay in D-U937 cells at 24 hr [2] |
| --- | --- | --- | --- | --- | --- | --- | --- | --- | --- | --- |
| < 10 | < 50 | < 50 | 50 to 1000 |  |  |  |  | Nc1ncnc2c1c(-c1ccc(O)cc1)nn2Cc1nc2cccc(C#CCOc3ccccc3)c2c(=O)n1Cc1ccccc1Cl [Example 52, 2-((4-Amino-3-(4-hydroxyphenyl)-1H-pyrazolo[3,4-d]pyrimidin-1-yl)methyl)-3-(2-chlorobenzyl)-5-(3-phenoxyprop-1-ynyl)quinazolin-4(3H)-one] | − (− <30%) | − (− <30%) |
| < 10 | < 50 | 50 to 1000 | 50 to 1000 |  |  |  |  | C#Cc1cccc2nc(Cn3nc(-c4ccc(O)cc4)c4c(N)ncnc43)n(Cc3cc(OC)ccc3F)c(=O)c12 [Example 42, 2-((4-Amino-3-(4-hydroxyphenyl)-1H-pyrazolo[3,4-d]pyrimidin-1-yl)methyl)-5-ethynyl-3-(2-fluoro-5-methoxybenzyl)quinazolin-4(3H)-one] | − (− <30%) | − (− <30%) |
| < 10 | < 50 | < 50 | 50 to 1000 |  |  |  |  | CN(C)C(=O)CCCC#Cc1cccc2nc(Cn3nc(-c4ccc(O)cc4)c4c(N)ncnc43)n(Cc3ccccc3Cl)c(=O)c12 [Example 88, 6-(2-((4-Amino-3-(4-hydroxyphenyl)-1H-pyrazolo[3,4-d]pyrimidin-1-yl)methyl)-3-(2-chlorobenzyl)-4-oxo-3,4-dihydroquinazolin-5-yl)-N,N-dimethylhex-5-ynamide] | − (− <30%) | − (− <30%) |
| < 10 | < 50 | 50 to 1000 | 50 to 1000 |  |  |  |  | Nc1ncnc2c1c(-c1ccc(O)cc1)nn2Cc1nc2cccc(C#CCOCc3ccccc3)c2c(=O)n1Cc1ccccc1Cl [Example 40, 2-((4-Amino-3-(4-hydroxyphenyl)-1H-pyrazolo[3,4-d]pyrimidin-1-yl)methyl)-5-(3-(benzyloxy)prop-1-ynyl)-3-(2-chlorobenzyl)quinazolin-4(3H)-one] | − (− <30%) | − (− <30%) |
| < 10 | < 50 | 50 to 1000 | 50 to 1000 |  |  |  |  | C#Cc1cccc2nc(Cn3nc(-c4ccc(O)cc4)c4c(N)ncnc43)n(Cc3ccc(Cl)c(Cl)c3)c(=O)c12 [Example 43, 2-((4-Amino-3-(4-hydroxyphenyl)-1H-pyrazolo[3,4-d]pyrimidin-1-yl)methyl)-3-(3,4-dichlorobenzyl)-5-ethynylquinazolin-4(3H)-one] | − (− <30%) | − (− <30%) |
| < 10 | < 50 | 50 to 1000 | 50 to 1000 |  |  |  |  | COCCOCCOCC#Cc1cccc2nc(Cn3nc(-c4cccc(O)c4)c4c(N)ncnc43)n(Cc3ccccc3F)c(=O)c12 [Example 50, 2-((4-Amino-3-(3-hydroxyphenyl)-1H-pyrazolo[3,4-d]pyrimidin-1-yl)methyl)-3-(2-fluorobenzyl)-5-(3-(2-(2-methoxyethoxy)ethoxy)prop-1-ynyl)quinazolin-4(3H)-one] | − (− <30%) | − (− <30%) |
| < 10 | < 50 | < 50 | 50 to 1000 |  |  |  |  | CN(C)CCNC(=O)CCCC#Cc1cccc2nc(Cn3nc(-c4ccc(O)cc4)c4c(N)ncnc43)n(Cc3ccccc3Cl)c(=O)c12 [Example 78, 6-(2-((4-Amino-3-(4-hydroxyphenyl)-1H-pyrazolo[3,4-d]pyrimidin-1-yl)methyl)-3-(2-chlorobenzyl)-4-oxo-3,4-dihydroquinazolin-5-yl)-N-(2-(dimethylamino)ethyl) hex-5-ynamide] | − (− <30%) | − (− <30%) |
| < 10 | < 50 | 50 to 1000 | 50 to 1000 |  |  |  |  | C#Cc1cccc2nc(Cn3nc(-c4ccc(O)cc4)c4c(N)ncnc43)n(Cc3ccc(C(F)(F)F)cc3)c(=O)c12 [Example 29, 2-((4-Amino-3-(4-hydroxyphenyl)-1H-pyrazolo[3,4-d]pyrimidin-1-yl)methyl)-5-ethynyl-3-(4-(trifluoromethyl)benzyl)quinazolin-4(3H)-one] | − (− <30%) | − (− <30%) |
